For assay [1], the system named is Botrytis cinerea. As to the kind of experiment: Antifungal activity against Botryotinia fuckeliana 2100 assessed as inhibition of mycelial growth at 100 ppm measured after 6 days. Type of assay: functional.
For assay [2], the system named is Botrytis cinerea. As to the kind of experiment: Antifungal activity against Botryotinia fuckeliana 2100 assessed as inhibition of mycelial growth at 200 ppm measured after 6 days. It counts as functional. The conditions noted are these: Botrytis cinerea, 2100, 144 h; read-out: GI.
In assay [3] the test system is Colletotrichum gloeosporioides. As to the kind of experiment: Antifungal activity against Colletotrichum gloeosporioides 20122 assessed as inhibition of mycelial growth at => 100 ppm measured after 24 to 144 hr. Type of assay: functional, organism-based.

Active and inactive are the calls of the source. The calls are words filed in the database; no cut-off is given here.

As for `C[C@@]1(O)CC=C2[C@@](C)(CCC[C@@]2(C)CO)CC1`, in assay [1], the “growth inhibition (GI)” value is “inactive”. As to `CC1(C)CCC[C@@]2(C)CC[C@](C)(O)CC=C12` [WIDDROL], in assay [2], the inhibition of growth at 200 ppm is 70.7%. Besides, in assay [1] (Botrytis cinerea, 2100, 144 h, read-out: GI), the inhibition of growth at 100 ppm was 60%. Moreover, in assay [3], the “growth inhibition (GI)” value is “inactive”. With `CC1(C)C2=CC[C@@](C)(O)CC[C@]2(C)CC[C@H]1O`, in assay [1], the “growth inhibition (GI)” value is “inactive”.

As for `CC1(C)C(=O)CC[C@@]2(C)CC[C@](C)(O)CC=C12`, the “growth inhibition (GI)” value in assay [1] was “inactive”. Same read-out and setting: under `CC1(C)CC[C@@H]2O[C@]13[C@H](O)C[C@@](C)(O)CC[C@]23C` stands “inactive”. For `CC1(C)C2=CC[C@@](C)(O)CC[C@]2(C)CC[C@@H]1O`, the “growth inhibition (GI)” value in assay [1] is “inactive”.
